What was measured:
Assay type in all cases: biochemical
PI3Kβ = biological target: T1, PI3Kβ (Homo sapiens, UniProt P42338); test: In vitro determination of the PI3K enzyme inhibitory activity in the cell free assay (ADP-Glo Kinase Assay), PI3Kβ; settings: ATP 100 μM, read-out: PI3K beta inhibition
T1 construct: purchased Millipore Ltd (Billerica, Mass.)
Procedure: (§1) In vitro Determination of the PI3K Enzyme Inhibitory Activity in the Cell Free Assay
(§2) Human recombinant proteins PI3Kα, PI3Kβ, PI3Kγ and PI3Kδ were purchased from Millipore Ltd (Billerica, Mass.). Compounds were dissolved at 0.5 mM in DMSO and were tested at different concentrations for their activity against PI3Ks using the ADP-Glo™ Kinase Assay (Promega, Madison Wis.) according to the manufacturer's instructions.
(§3) Briefly, the kinase reactions were performed in 384-well white plates (Greiner Bio-One GmbH, Frickenhausen). Each well was loaded with 0.1 μl of test compounds and 2.5 μl of 2× reaction buffer (40 mM Tris pH7.5, 0.5 mM EGTA, 0.5 mM Na3VO4, 5 mM β-glycerophosphate, 0.1 mg/ml BSA, 1 mM DTT), containing 50 μM PI and PS substrates (L-α-phosphatidylinositol sodium salt and L-α-phosphatidyl-L-serine, Sigma-Aldrich, St. Louis Mo.) and the PI3K recombinant proteins (PI3Kγ 0.25 ng/μl, PI3Kδ 1 ng/μl, PI3Kα 0.125 ng/μl, PI3Kβ 1 ng/μl).
(§4) The reactions were started by adding 2.5 μl of 2×ATP solution to each well (final concentrations: PI3Kγ ATP 30 μM; PI3Kδ ATP 80 μM; PI3KαATP 50 μM; PI3Kβ ATP 100 μM) and incubated for 60 min at room temperature. Subsequently, each kinase reaction was incubated for 40 min with 5 μl ADP-Glo™ Reagent, allowing depletion of unconsumed ATP. Then, the Kinase Detection Reagent (10 μl) was added in each well to convert ADP to ATP and to allow the newly synthesized ATP to be measured using a luciferase/luciferin reaction. Following 60 min incubation, the luminescence signal was measured using a Wallac EnVision® multilabel reader (PerkinElmer, Waltham Mass.).
(§5) Curve fitting and IC50 calculation were carried out using a four-parameter logistic model in XLfit (IDBS, Guilford, UK) for Microsoft Excel (Microsoft, Redmont, Wash.).

PI3Kδ = biological target: T2, PI3Kδ (Homo sapiens, UniProt O00329); test: In vitro determination of the PI3K enzyme inhibitory activity in the cell free assay (ADP-Glo Kinase Assay), PI3Kδ; settings: ATP 80 μM, read-out: PI3K delta inhibition
T2 construct: purchased Millipore Ltd (Billerica, Mass.)
T2 sequence (O00329 whole entry): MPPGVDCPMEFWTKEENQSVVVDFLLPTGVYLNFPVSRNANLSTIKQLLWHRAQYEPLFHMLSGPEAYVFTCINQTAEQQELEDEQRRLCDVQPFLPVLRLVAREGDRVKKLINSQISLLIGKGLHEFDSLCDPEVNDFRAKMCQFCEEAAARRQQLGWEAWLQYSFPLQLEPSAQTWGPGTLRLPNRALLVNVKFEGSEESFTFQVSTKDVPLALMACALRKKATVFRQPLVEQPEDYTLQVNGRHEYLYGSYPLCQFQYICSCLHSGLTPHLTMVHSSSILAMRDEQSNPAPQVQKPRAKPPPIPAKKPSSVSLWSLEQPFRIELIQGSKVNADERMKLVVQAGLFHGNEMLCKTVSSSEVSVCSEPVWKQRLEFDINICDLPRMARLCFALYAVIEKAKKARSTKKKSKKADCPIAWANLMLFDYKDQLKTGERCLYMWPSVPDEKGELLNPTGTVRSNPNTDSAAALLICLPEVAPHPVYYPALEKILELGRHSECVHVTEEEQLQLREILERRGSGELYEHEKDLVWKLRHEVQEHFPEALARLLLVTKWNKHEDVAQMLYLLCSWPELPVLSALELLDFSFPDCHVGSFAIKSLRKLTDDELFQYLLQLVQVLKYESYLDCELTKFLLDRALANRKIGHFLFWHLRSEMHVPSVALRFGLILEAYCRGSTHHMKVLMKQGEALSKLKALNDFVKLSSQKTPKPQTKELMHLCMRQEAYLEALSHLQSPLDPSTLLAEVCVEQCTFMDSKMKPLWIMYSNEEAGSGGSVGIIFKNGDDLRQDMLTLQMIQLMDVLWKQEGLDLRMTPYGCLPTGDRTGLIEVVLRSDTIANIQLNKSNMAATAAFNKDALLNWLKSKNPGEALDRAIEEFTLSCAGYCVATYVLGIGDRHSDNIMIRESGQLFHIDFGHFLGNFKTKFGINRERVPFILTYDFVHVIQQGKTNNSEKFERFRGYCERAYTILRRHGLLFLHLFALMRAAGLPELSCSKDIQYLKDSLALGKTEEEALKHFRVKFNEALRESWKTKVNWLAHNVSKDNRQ
T2 sequence (P27986 whole entry partner): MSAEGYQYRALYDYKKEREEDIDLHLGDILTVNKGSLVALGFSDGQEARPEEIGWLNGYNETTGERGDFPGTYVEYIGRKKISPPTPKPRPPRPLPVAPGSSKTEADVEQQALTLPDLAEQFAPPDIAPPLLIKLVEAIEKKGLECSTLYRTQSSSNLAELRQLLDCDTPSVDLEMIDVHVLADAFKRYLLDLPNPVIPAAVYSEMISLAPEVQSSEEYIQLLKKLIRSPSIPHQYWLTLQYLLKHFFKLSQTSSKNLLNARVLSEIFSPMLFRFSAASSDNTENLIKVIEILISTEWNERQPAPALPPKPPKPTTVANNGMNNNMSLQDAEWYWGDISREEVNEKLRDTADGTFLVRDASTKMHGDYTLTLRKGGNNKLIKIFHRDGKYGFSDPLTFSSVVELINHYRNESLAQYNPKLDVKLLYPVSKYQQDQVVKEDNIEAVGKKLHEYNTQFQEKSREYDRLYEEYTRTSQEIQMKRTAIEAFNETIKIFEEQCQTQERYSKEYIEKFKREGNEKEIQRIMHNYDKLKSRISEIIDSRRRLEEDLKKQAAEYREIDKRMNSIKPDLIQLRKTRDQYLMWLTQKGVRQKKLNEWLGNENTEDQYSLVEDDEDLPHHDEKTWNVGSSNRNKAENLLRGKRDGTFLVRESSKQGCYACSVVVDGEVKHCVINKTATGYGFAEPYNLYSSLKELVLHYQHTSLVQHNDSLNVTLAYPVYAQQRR
Procedure: as §1, §2, §3, §4, §5

PI3Kα = biological target: T3, PI3Kα (Homo sapiens, UniProt P42336); test: In vitro determination of the PI3K enzyme inhibitory activity in the cell free assay (ADP-Glo Kinase Assay), PI3Kα; settings: ATP 50 μM, read-out: PI3K alpha inhibition
T3 construct: purchased Millipore Ltd (Billerica, Mass.)
T3 sequence (P42336 whole entry): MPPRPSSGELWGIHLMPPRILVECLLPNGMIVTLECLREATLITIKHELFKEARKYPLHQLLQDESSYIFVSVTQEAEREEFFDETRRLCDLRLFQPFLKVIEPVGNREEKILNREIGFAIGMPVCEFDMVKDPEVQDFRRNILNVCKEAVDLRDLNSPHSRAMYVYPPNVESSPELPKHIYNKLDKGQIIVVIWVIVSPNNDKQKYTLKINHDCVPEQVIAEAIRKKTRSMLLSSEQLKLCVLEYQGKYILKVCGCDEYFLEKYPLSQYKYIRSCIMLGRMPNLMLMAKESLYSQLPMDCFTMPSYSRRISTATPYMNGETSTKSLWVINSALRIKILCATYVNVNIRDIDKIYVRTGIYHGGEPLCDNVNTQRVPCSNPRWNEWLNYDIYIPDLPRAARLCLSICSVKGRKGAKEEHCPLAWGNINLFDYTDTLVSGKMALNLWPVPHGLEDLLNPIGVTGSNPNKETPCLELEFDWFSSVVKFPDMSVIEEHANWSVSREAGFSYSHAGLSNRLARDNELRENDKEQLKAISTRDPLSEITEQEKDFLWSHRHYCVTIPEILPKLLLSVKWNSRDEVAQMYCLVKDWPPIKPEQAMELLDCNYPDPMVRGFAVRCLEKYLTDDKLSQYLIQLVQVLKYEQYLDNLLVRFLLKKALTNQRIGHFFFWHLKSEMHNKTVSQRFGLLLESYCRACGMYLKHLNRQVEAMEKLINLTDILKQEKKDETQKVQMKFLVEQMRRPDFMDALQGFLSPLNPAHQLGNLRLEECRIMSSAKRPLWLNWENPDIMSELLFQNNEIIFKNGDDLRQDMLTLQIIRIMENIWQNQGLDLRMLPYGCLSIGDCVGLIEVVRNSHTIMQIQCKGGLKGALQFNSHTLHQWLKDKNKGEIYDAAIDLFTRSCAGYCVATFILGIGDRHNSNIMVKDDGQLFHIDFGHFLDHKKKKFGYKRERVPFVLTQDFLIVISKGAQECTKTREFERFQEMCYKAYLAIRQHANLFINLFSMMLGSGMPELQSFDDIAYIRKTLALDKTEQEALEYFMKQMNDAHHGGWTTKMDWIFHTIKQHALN
T3 sequence (P27986 whole entry partner): as the sequence (P27986 whole entry partner) above
Procedure: as §1, §2, §3, §4, §5

PI3Kγ = biological target: T4, PI3Kγ (Homo sapiens, UniProt P48736); test: In vitro determination of the PI3K enzyme inhibitory activity in the cell free assay (ADP-Glo Kinase Assay), PI3Kγ; settings: ATP 30 μM, read-out: PI3K gamma inhibition
T4 construct: purchased Millipore Ltd (Billerica, Mass.)
T4 sequence (P48736 whole entry): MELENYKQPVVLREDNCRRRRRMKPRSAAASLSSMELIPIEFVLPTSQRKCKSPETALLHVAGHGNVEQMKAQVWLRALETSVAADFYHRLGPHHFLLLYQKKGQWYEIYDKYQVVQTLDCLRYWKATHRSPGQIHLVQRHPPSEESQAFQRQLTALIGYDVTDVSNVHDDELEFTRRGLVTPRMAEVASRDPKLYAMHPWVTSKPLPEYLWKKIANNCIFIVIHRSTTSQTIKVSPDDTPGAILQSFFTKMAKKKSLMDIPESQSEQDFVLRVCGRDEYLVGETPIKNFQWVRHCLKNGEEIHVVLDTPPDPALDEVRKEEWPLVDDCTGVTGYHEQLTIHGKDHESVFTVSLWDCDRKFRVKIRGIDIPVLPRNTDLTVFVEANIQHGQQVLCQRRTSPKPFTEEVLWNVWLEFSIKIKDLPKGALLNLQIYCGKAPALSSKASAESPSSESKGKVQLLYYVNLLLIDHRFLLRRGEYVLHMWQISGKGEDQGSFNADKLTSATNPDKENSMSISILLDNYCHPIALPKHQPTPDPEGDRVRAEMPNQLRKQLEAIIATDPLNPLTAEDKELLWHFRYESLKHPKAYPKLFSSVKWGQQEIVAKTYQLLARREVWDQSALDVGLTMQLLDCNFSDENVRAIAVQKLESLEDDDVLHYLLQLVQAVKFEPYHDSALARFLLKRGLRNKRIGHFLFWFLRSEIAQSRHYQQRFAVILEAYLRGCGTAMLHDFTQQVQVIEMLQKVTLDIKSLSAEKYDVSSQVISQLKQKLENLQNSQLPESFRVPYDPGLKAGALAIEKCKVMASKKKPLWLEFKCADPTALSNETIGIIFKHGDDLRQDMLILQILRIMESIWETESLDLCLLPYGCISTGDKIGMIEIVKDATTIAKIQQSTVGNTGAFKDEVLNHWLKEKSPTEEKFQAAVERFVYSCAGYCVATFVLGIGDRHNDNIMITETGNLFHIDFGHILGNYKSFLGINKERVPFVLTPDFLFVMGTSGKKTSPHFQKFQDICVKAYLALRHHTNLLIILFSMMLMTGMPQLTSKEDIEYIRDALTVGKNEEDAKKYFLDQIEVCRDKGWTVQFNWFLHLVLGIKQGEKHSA
Procedure: as §1, §2, §3, §4, §5

T1 sequence (P42338 whole entry): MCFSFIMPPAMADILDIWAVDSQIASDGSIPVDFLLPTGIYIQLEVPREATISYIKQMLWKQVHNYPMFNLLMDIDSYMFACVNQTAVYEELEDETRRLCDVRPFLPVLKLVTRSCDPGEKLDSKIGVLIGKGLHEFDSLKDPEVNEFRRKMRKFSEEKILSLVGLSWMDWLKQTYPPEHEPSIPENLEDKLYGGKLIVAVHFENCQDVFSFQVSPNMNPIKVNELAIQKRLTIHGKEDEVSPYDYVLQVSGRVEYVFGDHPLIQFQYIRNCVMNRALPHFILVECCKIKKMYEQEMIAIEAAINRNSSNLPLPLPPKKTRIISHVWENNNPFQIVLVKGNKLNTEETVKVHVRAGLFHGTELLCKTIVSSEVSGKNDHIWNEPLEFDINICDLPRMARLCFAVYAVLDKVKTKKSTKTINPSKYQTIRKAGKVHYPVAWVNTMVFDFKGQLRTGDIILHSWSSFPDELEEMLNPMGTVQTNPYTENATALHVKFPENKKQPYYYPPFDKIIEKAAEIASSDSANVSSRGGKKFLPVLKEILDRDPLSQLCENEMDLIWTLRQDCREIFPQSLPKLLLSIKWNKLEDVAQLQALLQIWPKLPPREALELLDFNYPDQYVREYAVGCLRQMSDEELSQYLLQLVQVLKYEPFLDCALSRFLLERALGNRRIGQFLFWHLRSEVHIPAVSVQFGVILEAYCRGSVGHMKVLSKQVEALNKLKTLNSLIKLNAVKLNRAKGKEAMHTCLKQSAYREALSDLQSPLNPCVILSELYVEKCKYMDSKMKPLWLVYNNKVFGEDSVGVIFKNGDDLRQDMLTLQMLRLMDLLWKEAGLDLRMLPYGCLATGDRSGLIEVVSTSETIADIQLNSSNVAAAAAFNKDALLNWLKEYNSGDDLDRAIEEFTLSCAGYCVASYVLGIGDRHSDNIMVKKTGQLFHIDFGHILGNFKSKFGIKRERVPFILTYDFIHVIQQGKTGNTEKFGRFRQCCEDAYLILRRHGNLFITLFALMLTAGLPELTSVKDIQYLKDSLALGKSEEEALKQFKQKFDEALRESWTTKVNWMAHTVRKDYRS
T1 sequence (P27986 whole entry partner): as the sequence (P27986 whole entry partner) above

| Compound | IC50 (PI3Kβ) [µM] | IC50 (PI3Kδ) [µM] | IC50 (PI3Kα) [µM] | IC50 (PI3Kγ) [µM] |
| --- | --- | --- | --- | --- |
| N#Cc1c(N)ncnc1NCc1cc2ccccn2c1-c1ccccc1F [Example 25, 4-amino-6-({[3-(2-fluorophenyl)indolizin-2-yl]methyl}amino)pyrimidine-5-carbonitrile] | > 1 | 0.01 to 1 | > 1 | > 1 |
| Cc1ccccc1-c1c(CNc2ncnc(N)c2C#N)cc2ccccn12 [Example 26, 4-amino-6-({[3-(2-methylphenyl)indolizin-2-yl]methyl}amino)pyrimidine-5-carbonitrile] | > 1 | 0.01 to 1 | > 1 | > 1 |
| N#Cc1c(N)ncnc1NCc1cn2ccccc2c1-c1ccccc1 [Example 27, 4-amino-6-{[(1-phenylindolizin-2-yl)methyl]amino}pyrimidine-5-carbonitrile] | > 1 | > 1 | > 1 | > 1 |
| N#Cc1c(N)ncnc1NCc1cn2ccccc2c1-c1cccc(F)c1 [Example 28, 4-amino-6-({[1-(3-fluorophenyl)indolizin-2-yl]methyl}amino)pyrimidine-5-carbonitrile] | > 1 | 0.01 to 1 | > 1 | > 1 |
| Cc1ccccc1-c1c(CNc2ncnc(N)c2C#N)cn2ccccc12 [Example 29, 4-amino-6-({[1-(2-methylphenyl)indolizin-2-yl]methyl}amino)pyrimidine-5-carbonitrile] | > 1 | 0.01 to 1 | > 1 | > 1 |
| N#Cc1c(N)ncnc1NCc1cn2ccccc2c1-c1ccccn1 [Example 30, 4-amino-6-({[1-(pyridin-2-yl)indolizin-2-yl]methyl}amino)pyrimidine-5-carbonitrile] | > 1 | 0.01 to 1 | > 1 | > 1 |
| N#Cc1c(N)ncnc1NCc1cc2ccccn2c1 [Example 31, 4-amino-6-[(indolizin-2-ylmethyl)amino]pyrimidine-5-carbonitrile] | > 1 | 0.01 to 1 | > 1 | > 1 |
| CC(Nc1ncnc(N)c1C#N)c1cc2ccccn2c1-c1ccccc1 (stereo not drawn) [Example 32, 4-amino-6-{[1-(3-phenylindolizin-2-yl)ethyl]amino}pyrimidine-5-carbonitrile] | > 1 | 0.01 to 1 | > 1 | > 1 |
| CC(Nc1ncnc(N)c1C#N)c1cc2ccccn2c1-c1ccccn1 (stereo not drawn) [Example 33, 4-amino-6-({1-[3-(pyridin-2-yl)indolizin-2-yl]ethyl}amino)pyrimidine-5-carbonitrile] | 0.01 to 1 | 0.01 to 1 | > 1 | > 1 |
| CC(Nc1ncnc(N)c1C#N)c1cc2ccccn2c1-c1cccnc1 (stereo not drawn) [Example 34, 4-amino-6-({1-[3-(pyridin-3-yl)indolizin-2-yl]ethyl}amino)pyrimidine-5-carbonitrile] | 0.01 to 1 | 0.01 to 1 | > 1 | 0.01 to 1 |
| CC(Nc1ncnc(N)c1C#N)c1cc2ccccn2c1-c1cnccn1 (stereo not drawn) [Example 35, 4-amino-6-({1-[3-(pyrazin-2-yl)indolizin-2-yl]ethyl}amino)pyrimidine-5-carbonitrile] | 0.01 to 1 | 0.01 to 1 | > 1 | > 1 |
| CC(Nc1ncnc(N)c1C#N)c1cc2ccccn2c1-c1ccncc1 (stereo not drawn) [Example 36, 4-amino-6-({1-[3-(pyridin-4-yl)indolizin-2-yl]ethyl}amino)pyrimidine-5-carbonitrile] | 0.01 to 1 | 0.01 to 1 | > 1 | 0.01 to 1 |
| CC(Nc1ncnc(N)c1C#N)c1cc2ccccn2c1-c1cccs1 (stereo not drawn) [Example 37, 4-amino-6-({1-[3-(thiophen-2-yl)indolizin-2-yl]ethyl}amino)pyrimidine-5-carbonitrile] | > 1 | 0.01 to 1 | > 1 | > 1 |
| CC(Nc1ncnc(N)c1C#N)c1cc2ccccn2c1-c1ccsc1 (stereo not drawn) [Example 38, 4-amino-6-({1-[3-(thiophen-3-yl)indolizin-2-yl]ethyl}amino)pyrimidine-5-carbonitrile] | > 1 | 0.01 to 1 | > 1 | > 1 |
| CC(Nc1ncnc(N)c1C#N)c1cc2c(F)cccn2c1-c1ccccn1 (stereo not drawn) [Example 39, 4-amino-6-({1-[8-fluoro-3-(pyridin-2-yl)indolizin-2-yl]ethyl}amino)pyrimidine-5-carbonitrile] | 0.01 to 1 | < 0.01 | > 1 | > 1 |
| Cc1cccc2cc(C(C)Nc3ncnc(N)c3C#N)c(-c3ccccn3)n12 (stereo not drawn) [Example 40, 4-amino-6-({1-[5-methyl-3-(pyridin-2-yl)indolizin-2-yl]ethyl}amino)pyrimidine-5-carbonitrile] | > 1 | < 0.01 | > 1 | > 1 |
| Cc1cccn2c(-c3ccccn3)c(C(C)Nc3ncnc(N)c3C#N)cc12 (stereo not drawn) [Example 41, 4-amino-6-({1-[8-methyl-3-(pyridin-2-yl)indolizin-2-yl]ethyl}amino)pyrimidine-5-carbonitrile] | > 1 | 0.01 to 1 | > 1 | > 1 |
| CC(Nc1ncnc(N)c1C#N)c1cc2ccccn2c1C1=CCOCC1 (stereo not drawn) [Example 42, 4-amino-6-({1-[3-(3,6-dihydro-2H-pyran-4-yl)indolizin-2-yl]ethyl}amino)pyrimidine-5-carbonitrile] | 0.01 to 1 | 0.01 to 1 | > 1 | > 1 |
| CCCC#Cc1c(C(C)Nc2ncnc(N)c2C#N)cc2ccccn12 (stereo not drawn) [Example 43, 4-amino-6-({1-[3-(pent-1-yn-1-yl)indolizin-2-yl]ethyl}amino)pyrimidine-5-carbonitrile] | 0.01 to 1 | 0.01 to 1 | > 1 | > 1 |
| CCC(Nc1ncnc(N)c1C#N)c1cc2ccccn2c1-c1ccccn1 (stereo not drawn) [Example 44, 4-amino-6-({1-[3-(pyridin-2-yl)indolizin-2-yl]propyl}amino)pyrimidine-5-carbonitrile] | > 1 | 0.01 to 1 | > 1 | 0.01 to 1 |
| CC(Nc1ncnc(N)c1C#N)c1cc2ccccn2c1C1=CCNCC1 (stereo not drawn) [Example 45, 4-amino-6-({1-[3-(1,2,3,6-tetrahydropyridin-4-yl)indolizin-2-yl]ethyl}amino)pyrimidine-5-carbonitrile] | 0.01 to 1 | 0.01 to 1 | > 1 | > 1 |
| CC(Nc1ncnc(N)c1C#N)c1cc2ccccn2c1C#CCO (stereo not drawn) [Example 46, 4-amino-6-({1-[3-(3-hydroxyprop-1-yn-1-yl)indolizin-2-yl]ethyl}amino)pyrimidine-5-carbonitrile] | 0.01 to 1 | 0.01 to 1 | > 1 | 0.01 to 1 |
| CC(Nc1ncnc(N)c1C=O)c1cc2ccccn2c1-c1ccccn1 (stereo not drawn) [Example 47, 4-amino-6-({1-[3-(pyridin-2-yl)indolizin-2-yl]ethyl}amino)pyrimidine-5-carbaldehyde] | 0.01 to 1 | 0.01 to 1 | > 1 | > 1 |
| CC(Nc1ncnc(N)c1Br)c1cc2ccccn2c1-c1ccccn1 (stereo not drawn) [Example 48, 5-bromo-4-N-{1-[3-(pyridin-2-yl)indolizin-2-yl]ethyl}pyrimidine-4,6-diamine] | > 1 | 0.01 to 1 | > 1 | > 1 |
| CC(Nc1ncnc(N)c1C(F)(F)F)c1cc2ccccn2c1-c1ccccn1 (stereo not drawn) [Example 49, 4-N-{1-[3-(pyridin-2-yl)indolizin-2-yl]ethyl}-5-(trifluoromethyl)pyrimidine-4,6-diamine] | > 1 | 0.01 to 1 | > 1 | > 1 |
| Cc1c(N)ncnc1NC(C)c1cc2ccccn2c1-c1ccccn1 (stereo not drawn) [Example 50, 5-methyl-4-N-{1-[3-(pyridin-2-yl)indolizin-2-yl]ethyl}pyrimidine-4,6-diamine] | > 1 | 0.01 to 1 | > 1 | > 1 |
| CNC(=O)c1c(N)ncnc1NC(C)c1cc2ccccn2c1-c1ccccn1 (stereo not drawn) [Example 51, 4-amino-N-methyl-6-({1-[3-(pyridin-2-yl)indolizin-2-yl]ethyl}amino)pyrimidine-5-carboxamide] | > 1 | 0.01 to 1 | > 1 | > 1 |

— patent publication US9527869B2, “Indolizine derivatives as phoshoinositide 3-kinases inhibitors” (CHIESI FARMACEUTICI S.P.A., priority 2014, dated 2016)
